Read-outs that look alike come from different tables or passages of the source. Positions of bridges follow the written chain, without caps; N, C: chain ends. Residues, ends and D or L forms follow the SMILES beside them.
How the values were obtained:
Format in all cases: cell-based
hKv1.3 = hKv1.3 (Homo sapiens, UniProt P22001); test: cell-based
[1] = tested on: IL-2 secretion from T cells in human whole blood; details: read-out: WB (IL-2) IC50 (nM, Avg)
[2] = tested on: IFN-g secretion from T cells in human whole blood
[3] = read-out: WB (IFNg) IC50 (nM, Avg)

Chain of hKv1.3 (P22001 whole entry): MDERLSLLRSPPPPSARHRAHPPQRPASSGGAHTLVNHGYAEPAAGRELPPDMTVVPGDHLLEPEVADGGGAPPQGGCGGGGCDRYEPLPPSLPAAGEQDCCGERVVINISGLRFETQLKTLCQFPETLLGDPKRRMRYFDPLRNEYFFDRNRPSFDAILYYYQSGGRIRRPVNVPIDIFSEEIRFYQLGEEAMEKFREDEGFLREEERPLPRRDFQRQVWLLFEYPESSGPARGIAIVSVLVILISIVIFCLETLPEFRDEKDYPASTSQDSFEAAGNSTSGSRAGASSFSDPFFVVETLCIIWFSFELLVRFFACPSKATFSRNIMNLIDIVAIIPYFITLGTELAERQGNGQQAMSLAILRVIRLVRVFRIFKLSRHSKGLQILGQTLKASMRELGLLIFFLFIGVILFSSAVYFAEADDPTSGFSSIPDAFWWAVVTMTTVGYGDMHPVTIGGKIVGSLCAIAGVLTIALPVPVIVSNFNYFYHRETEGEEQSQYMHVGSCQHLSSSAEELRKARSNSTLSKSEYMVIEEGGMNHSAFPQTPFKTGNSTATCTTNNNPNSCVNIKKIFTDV

Compound	IC50 (hKv1.3; Kv1.3 (IWQ) IC50 (nM, Avg)) [nM]	IC50 [1] [nM]	IC50 [2, 3] [nM]	IC50 (hKv1.3; read-out: Kv1.3 (IWQ) IC50 (nM, Avg)) [nM]	IC50 ([2]; read-out: WB (IFNg) IC5- (nM, Avg)) [nM]
CCCC[C@@H]1NC(=O)[C@H](CO)NC(=O)[C@H](Cc2c[nH]cn2)NC(=O)[C@H](CCC(=O)O)NC(=O)[C@@H]2CSSC[C@@H]3NC(=O)[C@H]([C@@H](C)O)NC(=O)[C@H](CCCNC(=N)N)NC(=O)[C@H](CCCNC(=N)N)NC(=O)[C@H](CSSC[C@H](NC(=O)[C@H](CCCNC(=N)N)NC(=O)[C@H](CO)NC(=O)[C@H](CCCCN)NC(=O)[C@@H]4CCCN4C(=O)[C@H]([C@@H](C)CC)NC(=O)[C@H]([C@@H](C)O)NC(=O)[C@H](CC(=O)O)NC(=O)[C@H]([C@@H](C)CC)NC(=O)[C@@H](NC(=O)[C@H](CO)NC(=O)[C@@H](N)CCCNC(=N)N)CSSC[C@@H](C(N)=O)NC(=O)[C@H]([C@@H](C)O)NC(=O)CNC3=O)C(=O)N[C@@H]([C@@H](C)O)C(=O)N[C@@H](C)C(=O)N[C@@H](C)C(=O)N[C@@H](CCCCN)C(=O)N2)NC(=O)[C@H](Cc2ccccc2)NC(=O)[C@H](CO)NC(=O)[C@H](CC(C)C)NC(=O)[C@H](CCCNC(=N)N)NC(=O)[C@H](Cc2ccc(O)cc2)NC(=O)[C@H](CCCCN)NC1=O	0.398	1.32	2.03		
CCCC[C@@H]1NC(=O)[C@H](CO)NC(=O)[C@H](Cc2c[nH]cn2)NC(=O)[C@H](CCCCN)NC(=O)[C@@H]2CSSC[C@@H]3NC(=O)[C@H]([C@@H](C)O)NC(=O)[C@H](CCCNC(=N)N)NC(=O)[C@H](CCCCN)NC(=O)[C@H](CSSC[C@H](NC(=O)[C@H](CCCNC(=N)N)NC(=O)[C@H](CO)NC(=O)[C@H](CCCCN)NC(=O)[C@@H]4CCCN4C(=O)[C@H]([C@@H](C)CC)NC(=O)[C@H]([C@@H](C)O)NC(=O)[C@H](CC(=O)O)NC(=O)[C@H](CCC(=O)O)NC(=O)[C@@H](NC(=O)[C@H](CO)NC(=O)[C@@H](N)CCCNC(=N)N)CSSC[C@@H](C(N)=O)NC(=O)[C@H]([C@@H](C)O)NC(=O)CNC3=O)C(=O)N[C@@H]([C@@H](C)O)C(=O)N[C@@H](C)C(=O)N[C@@H](Cc3ccccc3)C(=O)N[C@@H](CCCCN)C(=O)N2)NC(=O)[C@H](Cc2ccccc2)NC(=O)[C@H](Cc2cccc3ccccc23)NC(=O)[C@H](CC(C)C)NC(=O)[C@H](CCCNC(=N)N)NC(=O)[C@H](Cc2ccc(O)cc2)NC(=O)[C@H](CCCCN)NC1=O	1.66	10.7	17.4		
CCCC[C@@H]1NC(=O)[C@H](CO)NC(=O)[C@H](Cc2c[nH]cn2)NC(=O)[C@H](CCCNC(=N)N)NC(=O)[C@@H]2CSSC[C@@H]3NC(=O)[C@H]([C@@H](C)O)NC(=O)[C@H](CCCNC(=N)N)NC(=O)[C@H](CCCCN)NC(=O)[C@H](CSSC[C@H](NC(=O)[C@H](CCCNC(=N)N)NC(=O)[C@H](CO)NC(=O)[C@H](CCCCN)NC(=O)[C@@H]4CCCN4C(=O)[C@H]([C@@H](C)CC)NC(=O)[C@H]([C@@H](C)O)NC(=O)[C@H](CC(=O)O)NC(=O)[C@H](CCC(=O)O)NC(=O)[C@@H](NC(=O)[C@H](CO)NC(=O)[C@@H](N)CCCNC(=N)N)CSSC[C@@H](C(N)=O)NC(=O)[C@H]([C@@H](C)O)NC(=O)CNC3=O)C(=O)N[C@@H]([C@@H](C)O)C(=O)N[C@@H](C)C(=O)N[C@@H](Cc3ccccc3)C(=O)N[C@@H](CCCCN)C(=O)N2)NC(=O)[C@H](Cc2ccccc2)NC(=O)[C@H](CO)NC(=O)[C@H](CC(C)C)NC(=O)[C@H](CCCNC(=N)N)NC(=O)[C@H](Cc2ccc(O)cc2)NC(=O)[C@H](CCCCN)NC1=O	0.269	1.96	1.33		
30kDaPEG-ShK		0.372	2.42	1.93	
CC[C@H](C)[C@@H]1NC(=O)[C@H](CC(=O)O)NC(=O)[C@H]([C@@H](C)O)NC(=O)[C@@H]2CSSC[C@@H]3NC(=O)[C@H](CC(C)C)NC(=O)[C@H](CC(N)=O)NC(=O)[C@H](CC(C)C)NC(=O)[C@H](CCCNC(=N)N)NC(=O)[C@H](Cc4ccc(O)cc4)NC(=O)[C@H](CCCCN)NC(=O)[C@H](CCSC)NC(=O)[C@H](CO)NC(=O)[C@H]([C@@H](C)O)NC(=O)[C@H](CCCNC(=N)N)NC(=O)[C@H](CSSC[C@H](NC(=O)[C@H]([C@@H](C)O)NC(=O)[C@H](CCCCN)NC(=O)[C@H](CCCNC(=N)N)NC3=O)C(=O)NCC(=O)N[C@@H](CO)C(=O)N[C@H](C(=O)O)CSSC[C@H](NC(=O)[C@@H](NC(=O)[C@@H](N)CCCNC(=N)N)[C@@H](C)O)C(=O)N[C@@H](CCCCN)C(=O)N[C@@H](CC(=O)O)C(=O)N[C@@H](CC(C)C)C(=O)N[C@@H]([C@@H](C)CC)C(=O)N3CCC[C@H]3C(=O)N[C@@H](C(C)C)C(=O)N[C@@H](CO)C(=O)N[C@@H](CCC(=O)O)C(=O)N2)NC(=O)[C@H](CCCNC(=N)N)NC1=O [HmK, reference compound] (H-RTCKDLIPVSECTDIRCRTSMKYRLNLCRKTCGSC-OH; disulfide 3-35, 12-28, 17-32)	0.9	0.85	1.2		
CC[C@H](C)[C@@H]1NC(=O)[C@@H](NC(=O)[C@H](CO)NC(=O)[C@@H](N)CCCNC(=N)N)CSSC[C@@H](C(=O)O)NC(=O)[C@H]([C@@H](C)O)NC(=O)CNC(=O)[C@@H]2CSSC[C@@H]3NC(=O)[C@H](CCC(N)=O)NC(=O)[C@H](Cc4ccccc4)NC(=O)[C@H](C)NC(=O)[C@H]([C@@H](C)O)NC(=O)[C@H](CSSC[C@H](NC(=O)[C@H](Cc4ccccc4)NC(=O)[C@H](CO)NC(=O)[C@H](CC(C)C)NC(=O)[C@H](CCCNC(=N)N)NC(=O)[C@H](C)NC(=O)[C@H](CCCCN)NC(=O)[C@H](CCSC)NC(=O)[C@H](CO)NC(=O)[C@H](Cc4c[nH]cn4)NC(=O)[C@H](CCCCN)NC3=O)C(=O)N[C@@H](CCCNC(=N)N)C(=O)N[C@@H](CCCCN)C(=O)N[C@@H]([C@@H](C)O)C(=O)N2)NC(=O)[C@H](CCCNC(=N)N)NC(=O)[C@H](CO)NC(=O)[C@H](CCCCN)NC(=O)[C@@H]2CCCN2C(=O)[C@H]([C@@H](C)CC)NC(=O)[C@H]([C@@H](C)O)NC(=O)[C@H](CC(=O)O)NC1=O [Tyr23(A)]	0.621	3.75	5.44		
CC[C@H](C)[C@@H]1NC(=O)[C@@H](NC(=O)[C@H](CO)NC(=O)[C@@H](N)CCCNC(=N)N)CSSC[C@@H](C(=O)O)NC(=O)[C@H](CCC(=O)O)NC(=O)CNC(=O)[C@@H]2CSSC[C@@H]3NC(=O)[C@H](CCC(N)=O)NC(=O)[C@H](Cc4ccccc4)NC(=O)[C@H](C)NC(=O)[C@H]([C@@H](C)O)NC(=O)[C@H](CSSC[C@H](NC(=O)[C@H](Cc4ccccc4)NC(=O)[C@H](CO)NC(=O)[C@H](CC(C)C)NC(=O)[C@H](CCCNC(=N)N)NC(=O)[C@H](Cc4ccc(O)cc4)NC(=O)[C@H](CCCCN)NC(=O)[C@H](CCSC)NC(=O)[C@H](CO)NC(=O)[C@H](Cc4c[nH]cn4)NC(=O)[C@H](CCCCN)NC3=O)C(=O)N[C@@H](CCCNC(=N)N)C(=O)N[C@@H](CCCCN)C(=O)N[C@@H]([C@@H](C)O)C(=O)N2)NC(=O)[C@H](CCCNC(=N)N)NC(=O)[C@H](CO)NC(=O)[C@H](CCCCN)NC(=O)[C@@H]2CCCN2C(=O)[C@H]([C@@H](C)CC)NC(=O)[C@H]([C@@H](C)O)NC(=O)[C@H](CC(=O)O)NC1=O [[Glu34]ShK]	0.067				0.123
CC[C@H](C)[C@@H]1NC(=O)[C@@H](NC(=O)[C@H](CO)NC(=O)[C@@H](N)CCCNC(=N)N)CSSC[C@@H](C(=O)O)NC(=O)[C@H]([C@@H](C)O)NC(=O)CNC(=O)[C@@H]2CSSC[C@@H]3NC(=O)[C@H](CCC(N)=O)NC(=O)[C@H](Cc4ccccc4)NC(=O)[C@H](C)NC(=O)[C@H]([C@@H](C)O)NC(=O)[C@H](CSSC[C@H](NC(=O)[C@H](Cc4ccccc4)NC(=O)[C@H](CO)NC(=O)[C@H](CC(C)C)NC(=O)[C@H](CCCNC(=N)N)NC(=O)[C@H](Cc4ccc(O)cc4)NC(=O)[C@H](CCCCN)NC(=O)[C@H](CCSC)NC(=O)[C@H](CO)NC(=O)[C@H](Cc4c[nH]cn4)NC(=O)[C@H](CCCCN)NC3=O)C(=O)N[C@@H](CCCNC(=N)N)C(=O)N[C@@H](CCCCN)C(=O)N[C@@H]([C@@H](C)O)C(=O)N2)NC(=O)[C@H](CCCNC(=N)N)NC(=O)[C@H](CO)NC(=O)[C@H](CCCCN)NC(=O)[C@@H]2CCCN2C(=O)[C@H]([C@@H](C)CC)NC(=O)[C@H](CCCCN)NC(=O)[C@H](CC(=O)O)NC1=O [[Lys6]ShK]	0.085		0.21		
CC[C@H](C)[C@@H]1NC(=O)[C@@H](NC(=O)[C@H](CO)NC(=O)[C@@H](N)CCCNC(=N)N)CSSC[C@@H](C(N)=O)NC(=O)[C@H]([C@@H](C)O)NC(=O)CNC(=O)[C@@H]2CSSC[C@@H]3NC(=O)[C@H](CCCCN)NC(=O)[C@H](Cc4ccccc4)NC(=O)[C@H](C)NC(=O)[C@H]([C@@H](C)O)NC(=O)[C@H](CSSC[C@H](NC(=O)[C@H](Cc4ccccc4)NC(=O)[C@H](CO)NC(=O)[C@H](CC(C)C)NC(=O)[C@H](CCCNC(=N)N)NC(=O)[C@H](Cc4ccc(O)cc4)NC(=O)[C@H](CCCCN)NC(=O)[C@H](CC(N)=O)NC(=O)[C@H](CO)NC(=O)[C@H](Cc4c[nH]cn4)NC(=O)[C@H](CCCCN)NC3=O)C(=O)N[C@@H](CCCNC(=N)N)C(=O)N[C@@H](CCCCN)C(=O)N[C@@H]([C@@H](C)O)C(=O)N2)NC(=O)[C@H](CCCNC(=N)N)NC(=O)[C@H](CO)NC(=O)[C@H](CCCCN)NC(=O)[C@@H]2CCCN2C(=O)[C@H]([C@@H](C)CC)NC(=O)[C@H]([C@@H](C)O)NC(=O)[C@H](CC(=O)O)NC1=O [[Lys16, Asn21]ShK-amide]	0.167	3.24			

Source: US20120121591A1 (priority 2009, published 2012)
